One data set has as its target T1, aorta of rat (Rattus norvegicus, UniProt P23944).
T1 sequence (P23944 1-561): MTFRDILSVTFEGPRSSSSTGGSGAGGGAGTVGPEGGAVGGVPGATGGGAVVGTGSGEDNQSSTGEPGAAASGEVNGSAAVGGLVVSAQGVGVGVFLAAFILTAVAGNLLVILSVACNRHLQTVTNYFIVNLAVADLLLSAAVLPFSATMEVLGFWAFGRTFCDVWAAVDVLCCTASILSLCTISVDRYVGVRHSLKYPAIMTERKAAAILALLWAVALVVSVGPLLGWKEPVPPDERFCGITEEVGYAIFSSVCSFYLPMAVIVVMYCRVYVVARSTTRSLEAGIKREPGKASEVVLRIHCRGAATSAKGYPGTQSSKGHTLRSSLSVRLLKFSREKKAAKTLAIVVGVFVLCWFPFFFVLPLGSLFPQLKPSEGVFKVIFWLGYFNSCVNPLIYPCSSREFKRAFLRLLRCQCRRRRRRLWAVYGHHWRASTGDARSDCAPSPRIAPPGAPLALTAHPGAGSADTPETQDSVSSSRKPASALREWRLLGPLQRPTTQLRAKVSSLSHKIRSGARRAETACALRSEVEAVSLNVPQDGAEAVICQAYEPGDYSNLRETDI
The data set is described as follows: cell-based.

For data set [1], the target named is T2, right artrium of guinea pig (Cavia porcellus, UniProt H0W3H1).
T2 construct: beat rate of a right artrium of guinea pig; from tissue; host or cells: guinea pig right atrium
Nature of the data set: β-blocking effect: antagonism of increase of beat rate of right atrium of guinea pig caused by isoproterenol. The class given is cell-based. As to the method: This was evaluated in terms of the effect antagonizing an increase of beat rate of a right artrium of guinea pig caused by isoproterenol. Efficiency of blocking by the corresponding compound is expressed in pA2 value (see Van Bossum, Arch. int. Pharmacodyn. Ther. 143, 299, 1963).

For data set [2], the system named is spontaneously hypertensive rats. The data set is described as follows: Antihypertensive effect on the spontaneously hypertensive rats. The class given is in vivo, rat. To be noted: 30 mg/kg, single oral administration, SHR, average blood pressure by aortic cannula. The protocol: Antihypertensive effect on the spontaneously hypertensive rats Five spontaneous rats (SHR), showing more than […] of systolic blood pressure were used. After a single oral administration, antihypertensive activity of the corresponding compound was evaluated in terms of a decrease in average blood pressure measured by means of a cannula embedded in the aorta.

Data set [3] is described as follows: Acute toxicity of active compounds (LD50). The settings on record: in vivo. The text has this: Beta-blocking agents hitherto known have to be given to hypertensive patients for some period before desirable effects are obtained.
For the next data set, the system named is heart rate. Nature of the data set: Influence on the heart rate in unanaesthetized dogs. It counts as in vivo, dog. The settings on record: 10 mg/kg oral. As to the method: 4. Influence on the heart rate This was measured in dogs under unanaesthesized condition after oral administration of the corresponding compound.
The conditions of data set [4]: clinical use; cited from earlier work.
The mark [5] stands for this setting: pA2 vs phenylephrine, rat aorta, read-out: α-Blocking effect (pA2) (converted).
Setting [6] is: pA2 vs isoproterenol, guinea pig right atrium, read-out: β-Blocking effect (pA2) (converted).

Data on eleven molecules can be found in patent US4526893A, “Isocarbostyril derivatives” (priority 1982, dated 1985).

Where two headings read alike, the source gives them in different places.

T2 sequence (H0W3H1 1-470): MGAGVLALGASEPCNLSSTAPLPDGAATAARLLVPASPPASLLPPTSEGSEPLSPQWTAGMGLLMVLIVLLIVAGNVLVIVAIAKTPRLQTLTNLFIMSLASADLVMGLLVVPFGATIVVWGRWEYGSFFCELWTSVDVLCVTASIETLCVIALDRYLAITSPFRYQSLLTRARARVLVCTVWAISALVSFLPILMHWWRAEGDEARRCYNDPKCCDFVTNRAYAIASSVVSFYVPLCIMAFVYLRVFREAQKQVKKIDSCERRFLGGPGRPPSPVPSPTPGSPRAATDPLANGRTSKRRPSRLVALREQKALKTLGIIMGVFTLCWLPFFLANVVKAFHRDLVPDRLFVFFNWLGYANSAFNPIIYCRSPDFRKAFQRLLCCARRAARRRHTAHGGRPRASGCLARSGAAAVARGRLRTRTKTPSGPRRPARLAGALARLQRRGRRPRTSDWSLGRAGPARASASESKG

As to `CC(COc1ccccc1)NCC(O)COc1c[nH]c(=O)c2ccccc12.Cl` (centres unmarked) [4-[3-(1-methyl-2-phenoxyethyl-amino)-2-hydroxypropoxy]isocarbostyril hydrochloride], the Kb is 26.9 nM at aorta of rat (setting [5]) and 13.2 nM in data set [1] (setting [6]). Also, in data set [2], the “Antihypertensive effect: decrease in blood pressure” value (shortened to “Antihypertensive effect: decrease”) was determined as 15 mm Hg.
As to `CC(COc1ccc([N+](=O)[O-])cc1)NCC(O)COc1c[nH]c(=O)c2ccccc12.Cl` (centres unmarked) [4-[3-{1-methyl-2-(4-nitrophenoxy)ethylamino}-2-hydroxypropoxy]isocarbostyril hydrochloride], in data set [1] (setting [6]), the Kb is 37.2 nM. Also, in data set [2], the “Antihypertensive effect: decrease” value is reported as 17 mm Hg.
Usually LD50 stands for the dose at which mortality reaches 50%. For the molecule `COc1ccc(OCC(C)NCC(O)COc2c[nH]c(=O)c3ccccc23)c(OC)c1.Cl` (centres unmarked) [4-[3-{2-(2,4-dimethoxyphenoxy)-1-methylethylamino}-2-hydroxypropoxy]isocarbostyril hydrochloride], the LD50 in data set [3] (iv, I.V., read-out: LD50 I.V.) was 118 mg/kg; in data set [3] (po, P.O., read-out: LD50 P.O.), above 2000 mg/kg. Further, the Kb was 63.1 nM at aorta of rat (setting [5]) and 5.5 nM in data set [1] (setting [6]). In addition, the “Antihypertensive effect: decrease” value in data set [2] worked out at 32 mm Hg.
As to `CC(COc1ccccc1C(N)=O)NCC(O)COc1c[nH]c(=O)c2ccccc12` (centres unmarked) [4-[3-{2-(2-carbamoylphenoxy)-1-methylethylamino}-2-hydroxypropy]isocarbostyril], the Kb in data set [1] (setting [6]) is 14.8 nM. The “Antihypertensive effect: decrease” value in data set [2] was 10 mm Hg.
On to `COc1ccccc1OCC(C)NCC(O)COc1c[nH]c(=O)c2ccccc12.Cl` (centres unmarked) [4-[3-{2-(2-methoxyphenoxy)-1-methylethylamino}-2-hydroxypropoxy]isocarbostyril hydrochloride], for which the Kb is 19.5 nM at aorta of rat (setting [5]) and 10.7 nM in data set [1] (setting [6]). Also, the “Antihypertensive effect: decrease” value in data set [2] turned out to be 35 mm Hg.
Turning to `CC(COc1ccc(N)cc1)NCC(O)COc1c[nH]c(=O)c2ccccc12.Cl` (centres unmarked) [4-[3-{2-(4-aminophenoxy)-1-methylethylamino}-2-hydroxypropoxy]isocarbostyril hydrochloride], the Kb in data set [1] (setting [6]) was 7.24 nM. For the same molecule, the “Antihypertensive effect: decrease” value in data set [2] was determined as 31 mm Hg.
Consider `CC(COc1ccc(N)cc1)NCC(O)COc1c[nH]c(=O)c2ccccc12` (centres unmarked) [4-[3-{2-(4-aminophenoxy)-1-methylethylamino}-2-hydroxypropoxy]isocarbostyril], for which the LD50 was 77.4 mg/kg in data set [3] (iv, I.V., read-out: LD50 I.V.) and above 2000 mg/kg in data set [3] (po, P.O., read-out: LD50 P.O.).
Turning to `CC(COc1ccc(O)cc1)NCC(O)COc1c[nH]c(=O)c2ccccc12` (centres unmarked) [4-[3-{2-(4-hydroxyphenoxy)-1-methylethylamino{-2-hydroxy-propoxy]isocarbostyril], the LD50 in data set [3] (iv, I.V., read-out: LD50 I.V.) is 163 mg/kg; in data set [3] (po, P.O., read-out: LD50 P.O.), above 2000 mg/kg. Besides, the Kb was 102 nM at aorta of rat (setting [5]) and 2.95 nM in data set [1] (setting [6]). Also, the “Antihypertensive effect: decrease” value in data set [2] is recorded as 26 mm Hg.
With `COc1ccc(OCC(C)NCC(O)COc2c[nH]c(=O)c3ccccc23)cc1.Cl` (centres unmarked) [4-[3-{2-(4-methoxyphenoxy)-1-methylethylamino}-2-hydroxypropoxy]isocarbostyril hydrochloride], the LD50 in data set [3] (iv, I.V., read-out: LD50 I.V.) was 137 mg/kg; in data set [3] (po, P.O., read-out: LD50 P.O.) it was above 2000 mg/kg. In addition, the Kb in data set [1] (setting [6]) was 9.55 nM. In data set [2], the “Antihypertensive effect: decrease” value is listed as 21 mm Hg.
`CC(CCc1ccccc1)NCC(O)c1ccc(O)c(C(N)=O)c1` (centres unmarked) [Labetalol, reference compound]: the Kb is 41.7 nM on aorta of rat and 38 nM in data set [1]. Besides, the “Antihypertensive effect: decrease” value in data set [2] came out at 31 mm Hg. For the same molecule, in the data set with heart rate, the “Influence on heart rate: change” value is on record as “Increase”. Moreover, the “orthostatic hypotension (in words)” value in data set [4] was “serious adverse reaction”.
For `CC(C)NCC(O)COc1cccc2ccccc12` (centres unmarked) [Propranolol, reference compound], the “Antihypertensive effect: decrease” value in data set [2] was 3 mm Hg. Further, the “Influence on heart rate: change” value with heart rate is “Decrease”.
